From patent publication US5633229A, “Method of using prophenins-antibiotic peptides” (University of California, priority 1995, dated 1997)
Where no end group is shown, it is not given here.

Legend:
C. albicans, strain 820 = experiment: radial diffusion assay in agarose gels, C. albicans; format: cell-based; details: for inhibitory activity against C. albicans (FIG. 4c): result in words; for minimal microbicidal concentration: Target C. albicans
Method: (§1) Aliquots (66 μl ) of each fraction were dried by vacuum centrifugation, and resuspended in approximately 6.6 μl of 0.01% acetic acid. Five μl samples of this concentrate were tested for antimicrobial activity against E. coli ML-35, L. monocytogenes, Strain EGD and C. albicans, strain 820 by radial diffusion and gel overlay techniques (Lehrer, R. I. et al. J Immunol Meth (1991) 137:167-173). Active fractions were further examined by acid-urea PAGE and SDS-PAGE. Prophenins emerged from the P10 column in fractions 38-43 (39.6 ml total volume), which contained a total of 18 mg protein BCA analysis.
(§2) The radial diffusion assay in agarose gels as described above was also used to test the activity of the purified prophenins. Samples of 5 μL each were added to 3 mm wells in thin gels composed of 10 mM sodium phosphate, 30 mg/ml trypticase soy broth powder in 1% agarose and containing approximately 4×10^5 CFU/ml of mid-log phase organisms. After allowing 3 hours for the samples to diffuse into the underlayer gel, a nutrient-rich overlay gel was poured and the plates were incubated for 24 hours at 37° C. to allow surviving organisms to form microcolonies. The diameters of the clear zones were measured and expressed in "units" (10 units=1 mm) as described previously.

E. coli ML-35 = experiment: radial diffusion assay in agarose gels, E. coli; format: cell-based; details: for minimal microbicidal concentration: Target E. coli
Method: as §1, §2

[1] = system: L. monocytogenes, Strain EGD; experiment: radial diffusion assay in agarose gels, L. monocytogenes; format: cell-based; details: Target L. monocytogenes
Method: as §1, §2

[2] = system: lipid polysaccharide (LPS) of the Gram-negative bacterium E. coli strain 0.55B5; experiment: Limulus amebocyte lysate (LAL) test for endotoxin binding; format: biochemical; set-up: key to LPS-induced gel formation of E-TOXATE (Table 3): ++: a solid gel (no inhibition); +: increased viscosity without solid gel formation (partial inhibition); 0: gelation was absent (complete inhibition); details: for LPS-induced gel formation of E-TOXATE (Table 3): 60 minutes at 37° C.
Method: The prophenins of the invention were tested for their ability to bind the lipid polysaccharide (LPS) of the Gram-negative bacterium E. coli strain 0.55B5. The assay was the Limulus amebocyte lysate (LAL) test for endotoxins conducted in the presence and absence of the test compounds. The test was conducted using the procedure described in Sigma Technical Bulletin No. 210 as revised in Dec. 1992 and published by Sigma Chemical Company, St. Louis, Mo.
The LAL test is based on the ability of LPS to effect gelation in the commercial reagent E-TOXATE™ which is prepared from the lysate of circulating amebocytes of the Horseshoe Crab Limulus polyphemus. As described in the technical bulletin, when exposed to minute quantities of LPS, the lysate increases in opacity as well as viscosity and may gel or clot depending on the concentration of endotoxin. The technical bulletin goes on to speculate that the mechanism appears analogous to the clotting of mammalian blood and involves the steps of activation of a trypsin-like preclotting enzymes by the LPS in the presence of calcium ion, followed by enzymic modifications of a "coagulogen" by proteolysis to produce a clottable protein. These steps are believed tied to the biologically active or "pyrogenic" portion of the molecule. It has been shown previously that detoxified LPS (or endotoxin) gives a negative LAL test.
In the assay, the amounts of prophenin-1 and polymyxin B (78% free polymyxin, Sigma) were preincubated in a final volume of 0.2 ml and the test mixtures contained LPS at a final concentration of 0.05 endotoxin unit/ml and E-TOXATE™ at the same concentration. The test compounds were incubated together with the LPS for 15 minutes before the E-TOXATE™ was added to a final volume (after E-TOXATE™ addition) of 0.2 ml. The tubes were then incubated for 60 minutes at 37° C. and examined for the formation of a gel.

## HNP-1: human defensin (HNP-1), control
C. albicans, strain 820
  inhibitory activity against C. albicans (FIG. 4c): substantially noninhibitory

## HNP-2: column head of Table 2; probably the human defensin control named HNP-1 in the text (CYCRIPACIAGERRYGTCIYQGRLWAFCC; ends and bridges not checked; cysteine pairing not given here; UniProt P59665 66-94, looked up)
E. coli ML-35
  minimal microbicidal concentration: 80.0 µg/mL
[1]
  minimal microbicidal concentration: 12.0 µg/mL
C. albicans, strain 820
  minimal microbicidal concentration: > 150 µg/mL

## PG-3: protegrin-3 (PG3), control (RGGGLCYCRRRFCVCVGR; ends and bridges not checked; cysteine pairing not given here; UniProt P32196 131-148, looked up)
E. coli ML-35
  minimal microbicidal concentration: 8.6 µg/mL
E. coli ML-35; result in words
  inhibitory activity against E. coli ML-35 (FIG. 4a): more inhibitory than HNP-1
[1]
  minimal microbicidal concentration: 9.0 µg/mL
C. albicans, strain 820
  minimal microbicidal concentration: 6.9 µg/mL
  inhibitory activity against C. albicans (FIG. 4c): successful antifungals

## Polymyxin B
[2]; LAL test, LPS 0.05 endotoxin unit/ml
  concentration giving complete inhibition of gelation: 5 µg/mL
[2]; LAL test, converted from μg/ml
  concentration giving complete inhibition of gelation, molar: ≈ 4.2 μM
[2]; peptide 0.16 μg/ml, LPS 0.05 endotoxin unit/ml
  LPS-induced gel formation of E-TOXATE (Table 3): ++
[2]; peptide 0.31 μg/ml, LPS 0.05 endotoxin unit/ml
  LPS-induced gel formation of E-TOXATE (Table 3): ++
[2]; peptide 0.63 μg/ml, LPS 0.05 endotoxin unit/ml
  LPS-induced gel formation of E-TOXATE (Table 3): ++
[2]; peptide 1.25 μg/ml, LPS 0.05 endotoxin unit/ml
  LPS-induced gel formation of E-TOXATE (Table 3): ++
[2]; peptide 2.5 μg/ml, LPS 0.05 endotoxin unit/ml
  LPS-induced gel formation of E-TOXATE (Table 3): +
[2]; peptide 5.0 μg/ml, LPS 0.05 endotoxin unit/ml
  LPS-induced gel formation of E-TOXATE (Table 3): 0
[2]; peptide 10.0 μg/ml, LPS 0.05 endotoxin unit/ml
  LPS-induced gel formation of E-TOXATE (Table 3): 0
